This note sets out measurements from ChEMBL document CHEMBL4177696, “Identification of a diverse synthetic abietane diterpenoid library and insight into the structure-activity relationships for antibacterial activity” (Bioorg Med Chem Lett, 2017).

Assay type in all cases: functional
One assay concerns Pseudomonas fluorescens. The experiment in a line: Antibacterial activity against Pseudomonas fluorescens measured after 24 hrs.
The next assay relates to Staphylococcus aureus. The experiment in a line: Antibacterial activity against Staphylococcus aureus measured after 24 hrs.
The next assay concerns Bacillus subtilis. In words: Antibacterial activity against Bacillus subtilis measured after 24 hrs.
The next assay relates to Escherichia coli. In words: Antibacterial activity against Escherichia coli measured after 24 hrs.

In brackets after ≈: the same amount, converted by molar mass.

One may read the MIC as the lowest concentration that inhibits growth of the organism. A high value points to a less susceptible organism. Take `C[C@]12CC=C3C(=O)OC[C@@H]3[C@@H]1CCc1ccccc12`: the MIC with Pseudomonas fluorescens was 1.6 µg/mL (≈ 6.29 µM); against Staphylococcus aureus, 50 µg/mL (≈ 197 µM); in the assay with Bacillus subtilis, 25 µg/mL (≈ 98.3 µM); with Escherichia coli, 0.8 µg/mL (≈ 3.15 µM).
For `COc1cccc2c1CC[C@H]1[C@@H](CO)[C@H](O[Si](C)(C)C(C)(C)C)CC[C@]21C`, in that order: 75 µg/mL (≈ 192 µM), 100 µg/mL (≈ 256 µM), 100 µg/mL (≈ 256 µM) and 100 µg/mL (≈ 256 µM).
For `COc1ccc(COC[C@H]2[C@H](O)CC[C@]3(C)c4cccc(OC)c4CC[C@@H]23)cc1`, in that order: 25 µg/mL (≈ 63 µM), 25 µg/mL (≈ 63 µM), 50 µg/mL (≈ 126 µM) and 25 µg/mL (≈ 63 µM).
Regarding `COc1c(C(C)C)ccc2c1CC[C@@]1(O)C3=C(CC[C@]21C)C(=O)OC3`, the minimal inhibitory concentration (MIC) in the assay with Pseudomonas fluorescens, in the assay on Staphylococcus aureus, against Bacillus subtilis and in the assay on Escherichia coli was 100 µg/mL (≈ 292 µM) throughout.
As for `COc1c(C(C)C)ccc2c1CC[C@H]1C3=C(CC[C@]21CO)C(=O)OC3`, the MIC with Pseudomonas fluorescens turned out to be 75 µg/mL (≈ 219 µM); in the assay on Staphylococcus aureus, 50 µg/mL (≈ 146 µM); against Bacillus subtilis, 75 µg/mL (≈ 219 µM); in the assay on Escherichia coli, 50 µg/mL (≈ 146 µM).
For the molecule `COc1cccc2c1CC[C@H]1C3=C(CC[C@]21C)C(=O)OC3`, the MIC against Pseudomonas fluorescens, in the assay with Staphylococcus aureus, against Bacillus subtilis and against Escherichia coli was 100 µg/mL (≈ 352 µM) each time.
As to `COc1c(C(C)C)ccc2c1CC[C@H]1c3cocc3CC[C@]21C`, the MIC in the assay on Pseudomonas fluorescens turned out to be 100 µg/mL (≈ 322 µM); in the assay on Staphylococcus aureus it was 50 µg/mL (≈ 161 µM); in the assay with Bacillus subtilis, 100 µg/mL (≈ 322 µM); in the assay on Escherichia coli it was 100 µg/mL (≈ 322 µM).
In the case of `CC(C)(C)[Si](C)(C)O[C@@H]1CC[C@]2(C)c3ccccc3CC[C@H]2[C@H]1CO`, the MIC was 75 µg/mL (≈ 208 µM) in the assay on Pseudomonas fluorescens, 100 µg/mL (≈ 277 µM) against Staphylococcus aureus, 75 µg/mL (≈ 208 µM) with Bacillus subtilis and 100 µg/mL (≈ 277 µM) in the assay with Escherichia coli.
For the molecule `COC(=O)C1=C[C@@H]2CCc3c(ccc(C(C)C)c3OC)[C@@]2(C)CC1`, the minimum inhibitory concentration (MIC) in the assay with Pseudomonas fluorescens is 25 µg/mL (≈ 76.1 µM); in the assay on Staphylococcus aureus it was 50 µg/mL (≈ 152 µM); with Bacillus subtilis, 25 µg/mL (≈ 76.1 µM); in the assay on Escherichia coli, 75 µg/mL (≈ 228 µM).
For the molecule `COc1c(C(C)C)ccc2c1CC[C@H]1C3=C(CC[C@]21C)C(=O)OC3`, the MIC in the assay with Pseudomonas fluorescens, against Staphylococcus aureus, with Bacillus subtilis and in the assay on Escherichia coli was 100 µg/mL (≈ 306 µM) each time.
Regarding `C[C@]12CCC3=C(COC3=O)[C@@H]1CCc1ccccc12`, the MIC against Pseudomonas fluorescens stood at 75 µg/mL (≈ 295 µM); in the assay on Staphylococcus aureus, 100 µg/mL (≈ 393 µM); against Bacillus subtilis, 75 µg/mL (≈ 295 µM); in the assay with Escherichia coli, 100 µg/mL (≈ 393 µM).
As for `CC(C)(C)C(=O)OC[C@H]1[C@H](O)CC[C@]2(C)c3ccccc3CC[C@@H]12`, the minimum inhibitory concentration (MIC) against Pseudomonas fluorescens amounted to 25 µg/mL (≈ 75.7 µM); against Staphylococcus aureus it was 25 µg/mL (≈ 75.7 µM); in the assay on Bacillus subtilis, 50 µg/mL (≈ 151 µM); with Escherichia coli, 25 µg/mL (≈ 75.7 µM).
Turning to `COC(=O)[C@]1(C)CCC[C@]2(C)c3ccc(C(C)C)c(NC(=O)Cn4cc(Cc5ccccc5)nn4)c3CC[C@@H]12`, the minimal inhibitory concentration (MIC) came out at 50 µg/mL (≈ 94.6 µM) in the assay with Pseudomonas fluorescens, 50 µg/mL (≈ 94.6 µM) in the assay with Staphylococcus aureus, 50 µg/mL (≈ 94.6 µM) with Bacillus subtilis and 75 µg/mL (≈ 142 µM) in the assay on Escherichia coli.
In the case of `COC(=O)[C@]1(C)CCC[C@]2(C)c3ccc(C(C)C)c(NC(=O)Cn4cc(C5CC5)nn4)c3CC[C@@H]12`, the MIC against Pseudomonas fluorescens stood at 75 µg/mL (≈ 157 µM); against Staphylococcus aureus it was 50 µg/mL (≈ 104 µM); against Bacillus subtilis it was 75 µg/mL (≈ 157 µM); against Escherichia coli it was 6.3 µg/mL (≈ 13.2 µM).
For `COC(=O)c1nnn(CC(=O)Nc2c(C(C)C)ccc3c2CC[C@H]2[C@](C)(C(=O)OC)CCC[C@]32C)c1C(=O)OC`, the minimal inhibitory concentration (MIC) with Pseudomonas fluorescens was 50 µg/mL (≈ 90.1 µM); in the assay with Staphylococcus aureus it was 25 µg/mL (≈ 45.1 µM); against Bacillus subtilis, 75 µg/mL (≈ 135 µM); in the assay on Escherichia coli, 25 µg/mL (≈ 45.1 µM).
In the case of `COC(=O)[C@]1(C)CCC[C@]2(C)c3ccc(C(C)C)c(NC(=O)Cn4cc(-c5ccccc5)nn4)c3CC[C@@H]12`, the minimal inhibitory concentration (MIC) against Pseudomonas fluorescens turned out to be 50 µg/mL (≈ 97.1 µM); against Staphylococcus aureus, 50 µg/mL (≈ 97.1 µM); against Bacillus subtilis, 25 µg/mL (≈ 48.6 µM); against Escherichia coli it was 25 µg/mL (≈ 48.6 µM).
Take `COC(=O)[C@]1(C)CCC[C@]2(C)c3ccc(C(C)C)c(NC(=O)Cn4cc(CBr)nn4)c3CC[C@@H]12`: the minimal inhibitory concentration (MIC) against Pseudomonas fluorescens came out at 25 µg/mL (≈ 47 µM); against Staphylococcus aureus, 50 µg/mL (≈ 94.1 µM); against Bacillus subtilis it was 50 µg/mL (≈ 94.1 µM); in the assay on Escherichia coli, 75 µg/mL (≈ 141 µM).
On to `COC(=O)[C@]1(C)CCC[C@]2(C)c3ccc(C(C)C)c(NC(=O)Cn4cc(-c5ccccc5F)nn4)c3CC[C@@H]12`, for which the minimal inhibitory concentration (MIC) in the assay with Pseudomonas fluorescens came out at 12.5 µg/mL (≈ 23.5 µM); with Staphylococcus aureus, 25 µg/mL (≈ 46.9 µM); against Bacillus subtilis, 50 µg/mL (≈ 93.9 µM); against Escherichia coli, 25 µg/mL (≈ 46.9 µM).
Turning to `COC(=O)[C@]1(C)CCC[C@]2(C)c3ccc(C(C)C)c(NC(=O)Cn4cc([Si](C)(C)C)nn4)c3CC[C@@H]12`, the MIC in the assay with Pseudomonas fluorescens is 100 µg/mL (≈ 196 µM); in the assay with Staphylococcus aureus, 75 µg/mL (≈ 147 µM); with Bacillus subtilis it was 100 µg/mL (≈ 196 µM); in the assay on Escherichia coli, 75 µg/mL (≈ 147 µM).
For `CCOCOC[C@]12CCC3=C(COC3=O)[C@@H]1CCc1c2ccc(C(C)C)c1OC`, the minimum inhibitory concentration (MIC) against Pseudomonas fluorescens, in the assay on Staphylococcus aureus, in the assay with Bacillus subtilis and with Escherichia coli was 100 µg/mL (≈ 250 µM) in each case.
With `COc1c(C(C)C)ccc2c1CC[C@H]1[C@@H]3COC(=O)[C@]3(O)CC[C@]21C`, the minimal inhibitory concentration (MIC) came out at 100 µg/mL (≈ 290 µM) with Pseudomonas fluorescens, 100 µg/mL (≈ 290 µM) in the assay with Staphylococcus aureus, 100 µg/mL (≈ 290 µM) in the assay on Bacillus subtilis and 50 µg/mL (≈ 145 µM) against Escherichia coli.
In the case of `COC(=O)[C@]1(C)CCC[C@]2(C)c3ccc(C(C)C)c(NC(=O)Cn4cc(CCC#N)nn4)c3CC[C@@H]12`, the MIC against Pseudomonas fluorescens stood at 50 µg/mL (≈ 102 µM); against Staphylococcus aureus, 50 µg/mL (≈ 102 µM); with Bacillus subtilis, 75 µg/mL (≈ 153 µM); with Escherichia coli it was 50 µg/mL (≈ 102 µM).
Take `COC(=O)c1cn(CC(=O)Nc2c(C(C)C)ccc3c2CC[C@H]2[C@](C)(C(=O)OC)CCC[C@]32C)nn1`: the minimal inhibitory concentration (MIC) was determined as 50 µg/mL (≈ 101 µM) against Pseudomonas fluorescens, 75 µg/mL (≈ 151 µM) in the assay with Staphylococcus aureus, 50 µg/mL (≈ 101 µM) against Bacillus subtilis and 75 µg/mL (≈ 151 µM) with Escherichia coli.
On to `COc1c(C(C)C)ccc2c1CC[C@H]1[C@H]3COC(=O)[C@@]3(O)CC[C@]21C`, for which the minimum inhibitory concentration (MIC) in the assay on Pseudomonas fluorescens came to 100 µg/mL (≈ 290 µM); with Staphylococcus aureus, 75 µg/mL (≈ 218 µM); with Bacillus subtilis, 100 µg/mL (≈ 290 µM); in the assay on Escherichia coli it was 100 µg/mL (≈ 290 µM).
For the molecule `COC(=O)[C@]1(C)CCC[C@]2(C)c3ccc(C(C)C)c(NC(=O)Cn4cc(COc5ccccc5)nn4)c3CC[C@@H]12`, the MIC against Pseudomonas fluorescens was determined as 75 µg/mL (≈ 138 µM); in the assay on Staphylococcus aureus it was 50 µg/mL (≈ 91.8 µM); against Bacillus subtilis, 12.5 µg/mL (≈ 22.9 µM); with Escherichia coli, 25 µg/mL (≈ 45.9 µM).
For `COC(=O)[C@]1(C)CCC[C@]2(C)c3ccc(C(C)C)c(NC(=O)Cn4cc(CNC(=O)OC(C)(C)C)nn4)c3CC[C@@H]12`, in that order: 25 µg/mL (≈ 44 µM), 75 µg/mL (≈ 132 µM), 50 µg/mL (≈ 88.1 µM) and 100 µg/mL (≈ 176 µM).
On to `COC(=O)[C@]1(C)CCC[C@]2(C)c3ccc(C(C)C)c(NC(=O)Cn4cc(C(O)c5ccccc5)nn4)c3CC[C@@H]12` (stereo partly specified), for which the MIC was 75 µg/mL (≈ 138 µM) against Pseudomonas fluorescens, 25 µg/mL (≈ 45.9 µM) in the assay with Staphylococcus aureus, 75 µg/mL (≈ 138 µM) with Bacillus subtilis and 50 µg/mL (≈ 91.8 µM) with Escherichia coli.
Take `COc1c(C(C)C)ccc2c1CC[C@H]1C(=O)C(=C(SC)SC)CC[C@]21CO`: the minimum inhibitory concentration (MIC) turned out to be 6.3 µg/mL (≈ 15.5 µM) with Pseudomonas fluorescens, 25 µg/mL (≈ 61.5 µM) in the assay on Staphylococcus aureus, 12.5 µg/mL (≈ 30.7 µM) against Bacillus subtilis and 3.1 µg/mL (≈ 7.62 µM) against Escherichia coli.
For `COC(=O)[C@]1(C)CCC[C@]2(C)c3ccc(C(C)C)c(NC(=O)Cn4cc(CCO)nn4)c3CC[C@@H]12`, in that order: 75 µg/mL (≈ 155 µM), 25 µg/mL (≈ 51.8 µM), 50 µg/mL (≈ 104 µM) and 25 µg/mL (≈ 51.8 µM).
